Measurements: US20120190752A1, “EXO-S-MECAMYLAMINE METHOD, USE, AND COMPOUND FOR TREATMENT” (Targacept Inc., priority 2009, published 2012)

System: subjects with major depressive disorder (MDD) who were inadequate responders to citalopram
Test: SIS (Sheehan Irritability Scale), total and individual items, Phase 2b add-on trial
Type: in vivo, human
Set-up: SIS Adj. Mean change / SIS total score change Adjusted Mean / SIS Anger With Others change Adjusted Mean / SIS Anger With Self change Adjusted Mean / SIS Edginess change Adjusted Mean / SIS Irritability change Adjusted Mean / SIS Moodiness change Adjusted Mean / SIS Temper change Adjusted Mean: scale not given here
Procedure: In more detail, a multi-center double-blind, randomized, placebo-controlled, parallel group, flexible dose titration study of TC-5214 as adjunctive therapy in subjects with major depressive disorder (MDD) who were inadequate responders to citalopram was conducted in centers in the US and India. The study consisted of a screening period, baseline/washout period, open-label phase, double-blind phase, and a follow-up visit. Subject participation in the study could continue for up to 16 weeks of treatment. Following a washout period of up to 28 days for other antidepressants, subjects with MDD and a MADRS total score >/=28 and a Clinical Global Impression-Severity (CGI-S) score >/=4 were enrolled on Day 1 into an open-label citalopram-only phase of the study. This phase lasted 8 weeks, with citalopram (CIT) dose increased from a once-daily dose of 20 mg (Day 1 through Week 4) to 40 mg (Week 4 through Week 8). A total of 579 subjects entered the open-label citalopram phase. At Week 8, subjects who tolerated 40 mg CIT, but whose MADRS score was reduced <50% from baseline and no lower than 17, and CGI-S≧4, were considered inadequate responders. These subjects (n=270) were randomized in a double-blind fashion to receive either placebo or TC-5214-23 as add-on therapy to continued CIT. The double-blind phase of the study also lasted 8 weeks (Week 8 to Week 16). Study drug, TC-5214-23 or placebo, was started at 2 mg daily (1 mg twice per day [BID] dosing), added on to continuing CIT (40 mg PO qd). After 2 weeks of treatment, the dose of TC-5214 could be increased to 4 mg (2 mg BID) or continued unchanged, with up-titration based upon good tolerability and inadequate therapeutic response. After a further 2 weeks, the dose of TC-5214 could be increased again to 8 mg (4 mg BID) if judged appropriate by the investigator, based upon good tolerability and inadequate therapeutic response. At any time during the double-blind phase of the study, placebo or TC-5214-23 could be reduced to the previous dose level following the emergence of unacceptable adverse events (AEs). […] At this follow-up, any signs or symptoms of relapse were evaluated. If a subject was prematurely discontinued from the study between Week 8 and Week 16 for any reason, the investigator was to make every effort to perform all evaluations as per protocol, assuming the subject had reached the end of the double-blind add-on treatment phase. These evaluations were to be made as soon as possible and within 2 weeks of discontinuation. […] There was no meaningful difference in results as a function of age, gender, site, or smoking status. [table] With regard to efficacy endpoints, the following tables present efficacy used in the ITT (Intent-to-Treat) and PP (Per Protocol) populations unless otherwise specific. The primary inference was based upon Week 16 visit using the ITT population. Change from baseline was obtained by subtracting the baseline values from the individual on-treatment values. Change from Week 16 was obtained by subtracting the Week 16 values from the individual follow-up visit (Week 18/19) values. If either the baseline or Week 16 or on-treatment or follow-up value was missing, the change from baseline or Week 16 value was also set to missing. To account for missing data, the last observation carry forward (LOCF) method was used for the ITT and PP populations. Thus, the last available on-therapy observation for a subject, including the observation at premature discontinuation, was used to estimate subsequent missing data points. For efficacy, baseline data were collected at Week 8 in the double-blind augmentation phase electronic case report form pages. For SIS, the endpoint was the change from Week 8 (double-blind baseline) to Week 16 of the SIS. Changes were analyzed using ANCOVA. Each SIS item score was also analyzed using ANCOVA. […]

[1] = ITT population, Double Blind Week 16 LOCF, change from DB baseline
[2] = ITT population, Double Blind Week 18 LOCF (Follow-up), change from Week 16
[3] = PP population, Double Blind Week 16 LOCF, change from DB baseline
[4] = PP population, Double Blind Week 18 LOCF (Follow-up), change from Week 16

## CN[C@@]1(C)[C@@H]2CC[C@@H](C2)C1(C)C [TC5214]
[1]
  SIS Anger With Others change Adjusted Mean: −2.56
  SIS Anger With Others change Mean Difference between TC-5214 and Placebo: 1.22
  SIS Anger With Self change Adjusted Mean: −2.29
  SIS Anger With Self change Mean Difference between TC-5214 and Placebo: 1.01
  SIS Edginess change Adjusted Mean: −2.55
  SIS Edginess change Mean Difference between TC-5214 and Placebo: 1.14
  SIS Frustration change Adjusted Mean: −2.74
  SIS Frustration change Mean Difference between TC-5214 and Placebo: 1.42
  SIS Irritability change Adjusted Mean: −2.74
  SIS Irritability change Mean Difference between TC-5214 and Placebo: 1.38
  SIS Moodiness change Adjusted Mean: −3.00
  SIS Moodiness change Mean Difference between TC-5214 and Placebo: 1.51
  SIS Temper change Adjusted Mean: −2.37
  SIS Temper change Mean Difference between TC-5214 and Placebo: 1.19
[2]
  SIS Anger With Others change Adjusted Mean: −0.07
  SIS Anger With Others change Mean Difference between TC-5214 and Placebo: 0.01
  SIS Anger With Self change Adjusted Mean: −0.07
  SIS Anger With Self change Mean Difference between TC-5214 and Placebo: 0.09
  SIS Edginess change Adjusted Mean: −0.24
  SIS Edginess change Mean Difference between TC-5214 and Placebo: 0.01
  SIS Frustration change Adjusted Mean: −0.09
  SIS Frustration change Mean Difference between TC-5214 and Placebo: −0.06
  SIS Irritability change Adjusted Mean: −0.14
  SIS Irritability change Mean Difference between TC-5214 and Placebo: −0.08
  SIS Moodiness change Adjusted Mean: −0.13
  SIS Moodiness change Mean Difference between TC-5214 and Placebo: −0.05
  SIS Temper change Adjusted Mean: −0.11
  SIS Temper change Mean Difference between TC-5214 and Placebo: −0.07
[3]
  SIS Anger With Others change Adjusted Mean: −2.77
  SIS Anger With Others change Mean Difference between TC-5214 and Placebo: 1.42
  SIS Anger With Self change Adjusted Mean: −2.54
  SIS Anger With Self change Mean Difference between TC-5214 and Placebo: 1.13
  SIS Edginess change Adjusted Mean: −2.81
  SIS Edginess change Mean Difference between TC-5214 and Placebo: 1.36
  SIS Frustration change Adjusted Mean: −3.00
  SIS Frustration change Mean Difference between TC-5214 and Placebo: 1.59
  SIS Irritability change Adjusted Mean: −3.00
  SIS Irritability change Mean Difference between TC-5214 and Placebo: 1.58
  SIS Moodiness change Adjusted Mean: −3.34
  SIS Moodiness change Mean Difference between TC-5214 and Placebo: 1.71
  SIS Temper change Adjusted Mean: −2.55
  SIS Temper change Mean Difference between TC-5214 and Placebo: 1.36
[4]
  SIS Anger With Others change Adjusted Mean: −0.10
  SIS Anger With Others change Mean Difference between TC-5214 and Placebo: 0.03
  SIS Anger With Self change Adjusted Mean: −0.09
  SIS Anger With Self change Mean Difference between TC-5214 and Placebo: 0.11
  SIS Edginess change Adjusted Mean: −0.27
  SIS Edginess change Mean Difference between TC-5214 and Placebo: 0.05
  SIS Frustration change Adjusted Mean: −0.09
  SIS Frustration change Mean Difference between TC-5214 and Placebo: −0.04
  SIS Irritability change Adjusted Mean: −0.14
  SIS Irritability change Mean Difference between TC-5214 and Placebo: −0.07
  SIS Moodiness change Adjusted Mean: −0.13
  SIS Moodiness change Mean Difference between TC-5214 and Placebo: −0.01
  SIS Temper change Adjusted Mean: −0.14
  SIS Temper change Mean Difference between TC-5214 and Placebo: −0.00
